How the values were obtained:
[1] = single ascending dose study of immediate release ajulemic acid, adverse events; assay type: in vivo, human
Description: FIG. 1 is a graph of the dose proportionality of Cmax and AUC0-24 in a single dose study in human subjects of immediate release ajulemic acid.
(§1) Administration of immediate release formulations of the THC derivative ajulemic acid may result in adverse events. Representative pharmacokinetic data for administration of ajulemic acid in immediate release form is shown in FIG. 1 (single ascending dose) and 2 (multiple ascending dose). The data in FIG. 2 are based on greater sampling days 1 and 7. In the single dose study, adverse events were observed when 80 mg or higher was administered. In the multiple dose study, adverse events were observed when 40, 60, and 80 mg was administered three times a day. In the single ascending dose study in fasted subjects, the most frequently occurring adverse events were dizziness (33.3%); nausea (20.8%); vomiting (14.6%); pallor (12.5%); dry mouth; headache; somnolence; tremor; and disorientation (10.4%). Other adverse events include tachycardia, fatigue, feeling drunk, paraesthesia, and euphoric mood (6.3%); and muscle spasms, muscle tightness, disturbance in attention, deja vu, and altered mood (4.2%). In the multiple ascending dose study, the most frequently occurring adverse events were dizziness (38.9%); nausea and somnolence (16.7%); and dry mouth, fatigue, feeling abnormal, anorexia, inappropriate affect, and orthostatic hypotension (11.1%).

[2] = multiple ascending dose study of immediate release ajulemic acid three times a day, adverse events; assay type: in vivo, human
Experimental: FIG. 2 is a graph of the concentration of ajulemic acid as a function of time in a multiple ascending dose study in human subjects of ajulemic acid administered in an immediate release formulation three times a day (6-6-12 hours). For the 80<=60 mg data, the first four doses were 80 mg and all remaining doses were 60 mg.
as §1

[3] = single ascending dose, fasted subjects

CCCCCCC(C)(C)c1cc(O)c2c(c1)OC(C)(C)[C@@H]1CC=C(C(=O)O)C[C@@H]21 [ajulemic acid, (6aR,10aR)-3-(1,1-dimethylheptyl)-Δ8-tetrahydro-cannabinol-9-carboxylic acid]
adverse event frequency: altered mood [1, 3]: 4.2%
adverse event frequency: deja vu [1, 3]: 4.2%
adverse event frequency: disorientation [1, 3]: 10.4%
adverse event frequency: disturbance in attention [1, 3]: 4.2%
adverse event frequency: dizziness [1, 3]: 33.3%
adverse event frequency: dry mouth [1, 3]: 10.4%
adverse event frequency: euphoric mood [1, 3]: 6.3%
adverse event frequency: fatigue [1, 3]: 6.3%
adverse event frequency: feeling drunk [1, 3]: 6.3%
adverse event frequency: headache [1, 3]: 10.4%
adverse event frequency: muscle spasms [1, 3]: 4.2%
adverse event frequency: muscle tightness [1, 3]: 4.2%
adverse event frequency: nausea [1, 3]: 20.8%
adverse event frequency: pallor [1, 3]: 12.5%
adverse event frequency: paraesthesia [1, 3]: 6.3%
adverse event frequency: somnolence [1, 3]: 10.4%
adverse event frequency: tachycardia [1, 3]: 6.3%
adverse event frequency: tremor [1, 3]: 10.4%
adverse event frequency: vomiting [1, 3]: 14.6%
dose at which adverse events were observed ([1]; single dose study): ≥ 80 mg
adverse event frequency: anorexia [2]: 11.1%
adverse event frequency: dizziness [2]: 38.9%
adverse event frequency: dry mouth [2]: 11.1%
adverse event frequency: fatigue [2]: 11.1%
adverse event frequency: feeling abnormal [2]: 11.1%
adverse event frequency: inappropriate affect [2]: 11.1%
adverse event frequency: nausea [2]: 16.7%
adverse event frequency: orthostatic hypotension [2]: 11.1%
adverse event frequency: somnolence [2]: 16.7%
